{"source": "patent US20050048539A1", "about": "“Methods to monitor molecule conformation and molecule/molecule proximity” (The General Hospital Corporation, priority 2003, published 2005)", "key": {"[1]": {"test_system": "full-length APP, BACE1 and APP CTFs", "assay": "Western blot of full-length APP, BACE1 and APP CTFs in N2a cells transfected with human APP751", "type": "cell-based, mouse", "conditions": "1 μM DAPT", "procedure": "For the Western Blot analysis, the cells were lysed in 1% Triton X-100 and electrophoresed in 10-20% SDS-polyacrylamide Tris-Glycine gels. The immunoblotting was performed using the APP C8 antibody (Selkoe, D. J. et al., Proc. Natl. Acad. Sci. USA 85, 7341-7345, 1988), mouse actin (Sigma-Aldrich) or rabbit BACE1 (Calbiochem), followed by detection with ECL reagent (Perkin Elmer, Boston, Mass.). Bands on films were quantitated (Odyssey software, LI-COR, Nebraska) and the values normalized to actin expression.\nWe further examined whether NSAIDs lead to a decrease in γ-secretase activity. Inhibition of γ-secretase activity leads to accumulation of C99 and C83 (APP CTFs) and decreased release of AICD. Mouse N2a neuroblastoma cells were transfected with human APP751, and were treated with different NSAIDs and a Western blot was performed for full-length APP and APP CTFs (FIG. 16A). […] Next we asked whether NSAIDs alter generation of AICD and examined the effects of NSAIDs on the ability of APP-Gal4 to be cleaved by γ-secretase, releasing the Gal4-AICD fragment which activates a Gal4-dependent, artificially expressed, luciferase plasmid (Cao, X. et al., Science 293: 115-120, 2001). […]"}, "[2]": {"test_system": "Aβ secretion", "assay": "Aβ production after DAPT treatment (sister cultures)", "type": "cell-based, Chinese hamster", "procedure": "(§1) Chinese hamster ovary (CHO) cells stably transfected with APP770 and either wild type PS1 (wt PS1) or Aspartate mutant PS1 (D257A PS1) were grown in OPTI-MEM with 5% fetal bovine serum and appropriate antibiotics (Puromycin or Zeocin, respectively, (Berezovska et al., 2000)).\nWe investigated whether APP and PS1 interactions would still be observed if γ-secretase function was inhibited."}, "[3]": {"test_system": "APP and PS1 (PS1/γ-secretase complex)", "assay": "FLIM assay for PS1 loop-APP C-terminus proximity in CHO cells treated with γ-secretase inhibitors", "type": "cell-based, Chinese hamster", "conditions": "WT PS1 CHO cells; donor PS1 loop-FITC, acceptor APP770-CY3; 4 h with DAPT 500 nM or WPE-III-31C 1 μM; non-FRET control 2600 ± 110, untreated 2290 ± 216", "procedure": "as §1\nCells were fixed and immunostained 24 hrs posttransfection as described previously (Jack, C. et al., Brain Res Mol Brain Res 87: 166-174, 2001). We used a polyclonal C8 antibody (Selkoe, D. et al., Proc Natl Acad Sci USA 85: 7341-7345, 1988) to detect the C-terminus of APP. A monoclonal antibody to the loop region of PS1 (Chemicon, Temecula, Calif.) was used to identify the γ-secretase complex. PS1 N-terminal X81 antibody was a gift from D. Selkoe (Brigham and Women's Hospital, Boston, Mass.); PS1 C-terminal antibody was purchased from R&D Systems, Inc., Minneapolis, Minn.). For FRET/FLIM studies we chose Cy3-labeled goat anti-rabbit as the acceptor fluorophore, and FITC-labeled goat anti-mouse as the donor fluorophore.\nFluorescence Lifetime Imaging Microscopy (FLIM) relies on the observation that fluorescence lifetimes (the time of fluorophore emission after brief excitation, measured in picoseconds) are shorter in the presence of a FRET acceptor. […] We used a high-speed Hamamatsu detector and hardware/software from Becker and Hickl (Berlin, Germany) to measure fluorescence lifetimes on a pixel-by-pixel basis. […]\nThe following controls were used to establish and validate the FLIM assay: (1) As a negative control, FITC lifetime was measured in the absence of the acceptor. […] (2) As a positive control, FITC lifetime was measured in the presence of an acceptor. […] By contrast, the FITC fluorescence lifetime (FLIM image) within the area where the acceptor was photobleached reverts to a longer lifetime (color-coded as blue), identical to the lifetime of FITC in the absence of an acceptor (as in the negative control, FIG. 7A). […]\nIf there was no interaction, lifetimes on the order of ˜2600 psec were observed. If FRET was detected, a population with a statistically shorter lifetime (<˜2400 psec) was observed."}, "[4]": {"test_system": "APP and PS1", "assay": "Photobleach dequenching FRET assay between APP and PS1", "type": "cell-based, Chinese hamster", "procedure": "Fluorescence Resonance Energy Transfer (FRET) measurements were made using a BioRad1024 confocal microscope mounted on a Nikon Eclipse TE300 inverted Microscope. A krypton-argon laser was used to excite FITC and Cy3 (excitation wavelengths at 488 and 568 nm, respectively). FRET was measured using a method developed for laser scanning confocal microscopy (McLean, P. J. et al., J Biol Chem 275: 8812-8816, 2000; Kinoshita, A. et al., J Neurosci 21: 8354-8361, 2001). The amount of FRET was calculated as a percent increase in donor (FITC) fluorescence intensity after photobleaching the acceptor (Cy3) in a small part of the cell (˜8×8 μm). This ratio was then normalized to the percent change in FITC fluorescence intensity in a non-bleached area of the cell. The percent change in fluorescence intensity was compared to the null hypothesis value of 1.0 by one-group t-tests.\nFRET arises when donor and acceptor molecules are <10 nm apart. […] A small area within the cell was photobleached at 568 nm (acceptor only), and FITC fluorescence intensity (at 488 nm) was measured before and after photobleaching.\nTreatment with γ-secretase inhibitors (or Asp mutations in PS1) prevents processing of substrates at γ-secretase site. […] This was also true for the D257A PS1 mutation; we observed 25.9±11% (n=8, P<0.05) increase in FITC-fluorescence intensity, compared to a non-FRET control."}}}
{"smiles": "C[C@H](NC(=O)Cc1cc(F)cc(F)c1)C(=O)N[C@H](C(=O)OC(C)(C)C)c1ccccc1", "note": "[DAPT]", "values": [{"measurement": "APP CTFs (Western blot)", "setting": "[1]", "result": "accumulation of APP CTFs"}, {"measurement": "Aβ secretion", "setting": "[2]", "result": "significant decrease"}, {"measurement": "FITC Lifetime (psec) mean ± SD", "setting": "[3]", "result": "2416 ± 118 (n = 9) psec"}, {"measurement": "association of APP with PS1 (photobleach FRET, FIG. 10)", "setting": "[4]; DAPT-treated cells", "result": "does not prevent close association of APP with PS1"}, {"measurement": "FRET: percent increase in FITC fluorescence intensity after photobleaching Cy3", "setting": "[4]; wt PS1/APP770 cells, DAPT treatment, untreated 11.6±3%", "result": "19.8±2", "unit": "%"}]}
